“And” between values parts separate entries of the source, which are not always exact repeats. Identical values can stand only once. No end group written: not given here.
Tested on: EV71
Experiment: Anti-EV71 efficiency in RD cells, viral RNA by qRT-PCR
Assay type: cell-based, enterovirus 71
Conditions: for Relative viral RNA amount (%): 24 h, control infected without polypeptide
Description: • (1) RD cells were plated in five 100 mm dishes. • (2) After the cells reached 70%-80% confluence, the MEM medium containing 10% serum was replaced with a MEM medium containing 2% serum. […] When the changes were obvious, samples were collected as follows. • (4) The supernatant in the 100 mm dish was transferred into a 15 ml centrifuge tube, and centrifuged at 500 g for 5 min. • (5) The supernatant was transferred into a new 15 ml centrifuge tube, and filtered through 0.22 μm filter membrane with a 50 ml syringe. • (6) RNA was extracted from 100 μl of the supernatant obtained in step (5) and subjected to one step qRT-PCR to measure the virus titer, and the previously extracted virus RNA with known titer was handled together as a control. 3. Measure Antiviral Efficiency of Polypeptide in RD Cells. • (1) Different cells were plated in 24-well cell plates. • (2) After the cells reached 70%-80% confluence, the MEM medium containing 10% serum was replaced with a MEM medium containing 2% serum (0.5 ml/well), and 5 μl of 10^6 PFU/mL EV71 viruses per well were added. • (3) After 1 h, different polypeptides were added at a final concentration of 0.01 μM, 0.1 μM, 1 μM, 10 μM, and 50 μM, respectively. • (4) Samples were collected 24 hours after virus infection, and RNA was extracted with total RNA extraction kit as follows. • (5) The supernatant in the wells was discarded, then 350 μl of TRK Lysis Buffer was added to each well and the plate was shaken on the shaker for 5 minutes. • (6) 350 μl of 70% ethanol (DEPC-treated) was added to the well and the plate was shaken on the shaker for 5 minutes. • (7) The mixture in the well was transferred to a RNA extraction column and centrifuged at 12,000 g for 1 min. • (8) The solution collected in the recovery tube was added back to the column and centrifuged at 12,000 g for 1 min. • (9) RNA washing buffer 1 was added to the column and centrifuged at 12,000 g for 30 s. • (10) RNA washing buffer 2 was added to the column and centrifuged at 12,000 g for 1 min. • (11) Step (10) was repeated once. • (12) The column was centrifuged at 12000 g for 2 min to completely remove residual RNA washing buffer. • (13) 50 μl DEPC-treated H2O was added to the column and centrifuge at 12,000 g for 2 min. • (14) 2 μl RNA sample was used according to one step qRT-PCR kit for fluorescence quantification experiment.
RD cells added with R8 penetrating peptide (sequence: RRRRRRRR) were used as a negative control.
RD cells were used to test the antiviral effect of polypeptide P2. EV71 (MOI=0.1) was added to RD cells at 80% confluence. After 1 hour of infection, polypeptide P2 was added at concentrations of 0.01 μM, 0.1 μM, 1 μM, 10 μM, and 50 μM, respectively. The samples were collected 24 hours later, and the total RNA was extracted. The level of viral genomic RNA was detected by qRT-PCR. The cells infected with the same type virus and added with penetrating peptide R8 were used as a control group.
• (1) RD cells were plated in five 100 mm dishes. • (2) After the cells reached 70%-80% confluence, the MEM medium containing 10% serum was replaced with a MEM medium containing 2% serum. […] When the changes were obvious, samples were collected as follows. • (4) The supernatant in the 100 mm dish was transferred into a 15 ml centrifuge tube, and centrifuged at 500 g for 5 min. • (5) The supernatant was transferred into a new 15 ml centrifuge tube, and filtered through 0.22 μm filter membrane with a 50 ml syringe. • (6) RNA was extracted from 100 μl of the supernatant obtained in step (5) and subjected to one step qRT-PCR to measure the virus titer, and the previously extracted virus RNA with known titer was handled together as a control. 3. […]

Compound	IC50 (read-out: IC50 against EV71 by qRT-PCR)	Relative viral RNA amount (%) (EV71 MOI=0.1, 0.01 μM)	Relative viral RNA amount (%) (EV71 MOI=0.1, 0.1 μM)	Relative viral RNA amount (%) (EV71 MOI=0.1, 1 μM)
RRRRRRRREEVRQYCRDQ [P2]	6.37 µM			
CCCCCCCCCCCCCCCC(=O)NCCCC[C@H](NC(=O)CCOCCOCCOCCOCCNC(=O)[C@H](CCCCN)NC(=O)[C@H](C)NC(=O)[C@@H]1CCCN1C(=O)[C@@H](NC(=O)[C@@H](NC(=O)[C@H](Cc1c[nH]c2ccccc12)NC(=O)CNC(=O)[C@H](CCC(N)=O)NC(=O)[C@H](CCC(=O)O)NC(=O)[C@H](CCCNC(=N)N)NC(=O)[C@H](CS)NC(=O)[C@H](Cc1ccc(O)cc1)NC(=O)[C@H](CCC(N)=O)NC(=O)[C@H](CCCNC(=N)N)NC(=O)[C@@H](NC(=O)[C@H](CCC(=O)O)NC(=O)[C@@H](N)CCC(=O)O)C(C)C)[C@@H](C)CC)[C@@H](C)CC)C(=O)O [3A-EP-PEG4-PA]		72.5% and 68.12% and 59.1%	69.96% and 68.69% and 67.81%	107.1% and 89.26% and 75.24%
CC[C@@H](C)[C@@H](NC(=O)[C@H]1CCCN1C(C)=O)C(=O)N[C@@H](C(=O)N[C@H](Cc1c[nH]c2ccccc12)C(=O)NCC(=O)N[C@H](CCC(N)=O)C(=O)N[C@H](CCC(=O)O)C(=O)N[C@H](CCCNC(=N)N)C(=O)N[C@H](CS)C(=O)N[C@H](Cc1ccc(O)cc1)C(=O)N[C@H](CCC(N)=O)C(=O)N[C@H](CCCNC(=N)N)C(=O)N[C@@H](C(=O)N[C@H](CCC(=O)O)C(=O)N[C@H](CCC(=O)O)C(=O)N1CCC[C@@H]1C(=O)N1CCC[C@@H]1C(=O)N[C@H](CCCNC(=N)N)C(=O)N[C@H](CCCNC(=N)N)C(=O)N[C@H](CCCNC(=N)N)C(=O)N[C@H](CCC(N)=O)C(=O)N[C@H](CCCNC(=N)N)C(=O)N[C@H](CCCNC(=N)N)C(=O)N[C@H](CCCCN)C(=O)N[C@H](CCCCN)C(=O)N[C@H](CCCNC(=N)N)C(=O)NCC(=O)N[C@H](Cc1ccc(O)cc1)C(N)=O)C(C)C)[C@H](C)CC [3A-EP-DRI]		75.93% and 73.36% and 72.89%	72.52% and 70.59% and 61.38%	100.5% and 95.84% and 90.71%

Source: patent US11999806B2, “Broad-spectrum polypeptide against enterovirus and application thereof” (WUHAN INSTITUTE OF VIROLOGY, CHINESE ACADEMY OF SCIENCES, priority 2018, dated 2024)
